Data on 26 compounds can be found in ChEMBL document CHEMBL3826948, “Alkyl substituted aminal derivatives of HCV NS5A inhibitor MK-8742” (Bioorg Med Chem Lett, 2016).

Common to all, as to conditions: Hepatitis C virus
Assay [1] can be described thus: Inhibition of NS5A in HCV genotype 2b assessed as replicon RNA levels by real time PCR based cell based assay. Also on record: species or system Hepatitis C virus subtype 2b. On the technique in general: In antiviral work, replicon cells carry a viral genome segment that copies itself.
Assay [2] is described as follows: Inhibition of NS5A in HCV genotype 1a assessed as replicon RNA levels by real time PCR based cell based assay. Also on record: species or system Hepatitis C virus subtype 1a.
Assay [3] can be described thus: Inhibition of NS5A in HCV genotype 3a assessed as replicon RNA levels by real time PCR based cell based assay. Also on record: species or system Hepatitis C virus subtype 3a.
Assay [4] is described as follows: Inhibition of NS5A in HCV genotype 2a assessed as replicon RNA levels by real time PCR based cell based assay. Also noted: species or system Hepatitis C virus subtype 2a.
Assay [5] is described as follows: Inhibition of NS5A in HCV genotype 1b assessed as replicon RNA levels by real time PCR based cell based assay. Also on record: species or system Hepatitis C virus subtype 1b.
Assay [6] is described as follows: Inhibition of NS5A in HCV genotype 4a assessed as replicon RNA levels by real time PCR based cell based assay. Also noted: species or system Hepatitis C virus subtype 4a.

Molecules are shown by their SMILES. Bounds are passed on as bounds.

In general, EC50 refers to the concentration at which the effect is half-maximal.

As to `COC(=O)N[C@H](C(=O)N1CCC[C@H]1c1ncc(-c2cc(F)c3c(c2)OC(C2CC2C#N)n2c-3cc3cc(-c4cnc([C@@H]5CCCN5C(=O)[C@@H](NC(=O)OC)C(C)C)[nH]4)ccc32)[nH]1)C(C)C` (stereo not given in full), the EC50 in assay [1] turned out to be 8 nM; in assay [2], 0.005 nM; in assay [3] it was 0.06 nM.
For `COC(=O)N[C@H](C(=O)N1CCC[C@H]1c1ncc(-c2cc(F)c3c(c2)OC(C2CC2C(=O)O)n2c-3cc3cc(-c4cnc([C@@H]5CCCN5C(=O)[C@@H](NC(=O)OC)C(C)C)[nH]4)ccc32)[nH]1)C(C)C` (stereo not given in full), in that order: 525 nM, 8 nM and 202 nM.
For the compound `COC(=O)N[C@H](C(=O)N1CCC[C@H]1c1ncc(-c2ccc3c(c2)OC(CC(C)(C)C)n2c-3cc3cc(-c4cnc([C@@H]5CCCN5C(=O)[C@@H](NC(=O)OC)C(C)C)[nH]4)ccc32)[nH]1)C(C)C` (stereo not given in full), the EC50 in assay [1] is 73 nM; in assay [4], 1 nM; in assay [5], 0.002 nM; in assay [2], 0.004 nM; in assay [6], 0.02 nM; in assay [3] it was 7 nM.
For `CNC(=O)C1CC1C1Oc2cc(-c3cnc([C@@H]4CCCN4C(=O)[C@@H](NC(=O)OC)C(C)C)[nH]3)cc(F)c2-c2cc3cc(-c4cnc([C@@H]5CCCN5C(=O)[C@@H](NC(=O)OC)C(C)C)[nH]4)ccc3n21` (stereo not given in full), the EC50 in assay [1] worked out at 52 nM; in assay [2] it was 1 nM; in assay [3] it was 10 nM.
`COC(=O)N[C@H](C(=O)N1CCC[C@H]1c1ncc(-c2ccc3c(c2)cc2n3C3(CCC3)Oc3cc(-c4cnc([C@@H]5C[C@@H](F)CN5C(=O)[C@@H](NC(=O)OC)C(C)C)[nH]4)cc(F)c3-2)[nH]1)C(C)C`: the EC50 in assay [1] worked out at 44 nM; in assay [4] it was 0.03 nM; in assay [5], 0.0005 nM; in assay [2] it was 0.002 nM; in assay [6] it was 0.04 nM; in assay [3], 0.6 nM.
In the case of `CCCCCCC1Oc2cc(-c3cnc([C@@H]4CCCN4C(=O)[C@@H](NC(=O)OC)C(C)C)[nH]3)ccc2-c2cc3cc(-c4cnc([C@@H]5CCCN5C(=O)[C@@H](NC(=O)OC)C(C)C)[nH]4)ccc3n21` (stereo not given in full), the EC50 in assay [1] stood at 12 nM; in assay [4] it was 0.01 nM; in assay [5] it was 0.001 nM; in assay [2], 0.001 nM; in assay [6], 0.02 nM; in assay [3], 0.2 nM.
Take `COC(=O)N[C@H](C(=O)N1CCC[C@H]1c1ncc(-c2ccc3c(c2)OC(C2CCCC2)n2c-3cc3cc(-c4cnc([C@@H]5CCCN5C(=O)[C@@H](NC(=O)OC)C(C)C)[nH]4)ccc32)[nH]1)C(C)C` (stereo not given in full): the EC50 in assay [1] is 2 nM; in assay [4] it was 0.07 nM; in assay [5] it was 0.003 nM; in assay [2], 0.002 nM; in assay [6], 0.005 nM; in assay [3] it was 0.3 nM.
As to `COC(=O)N[C@H](C(=O)N1CCC[C@H]1c1ncc(-c2ccc3c(c2)OC(C2CCC4(CC2)CC4)n2c-3cc3cc(-c4cnc([C@@H]5CCCN5C(=O)[C@@H](NC(=O)OC)C(C)C)[nH]4)ccc32)[nH]1)C(C)C` (stereo not given in full), the EC50 in assay [1] was 2 nM; in assay [4] it was less than 0.2 nM; in assay [5], 0.02 nM; in assay [2] it was less than 0.02 nM; in assay [6] it was less than 0.2 nM; in assay [3], 0.6 nM.
For the compound `CCCC1Oc2cc(-c3cnc([C@@H]4CCCN4C(=O)[C@@H](NC(=O)OC)C(C)C)[nH]3)ccc2-c2cc3cc(-c4cnc([C@@H]5CCCN5C(=O)[C@@H](NC(=O)OC)C(C)C)[nH]4)ccc3n21` (stereo not given in full), the EC50 is 3 nM in assay [1]; 0.003 nM in assay [4]; 0.002 nM in assay [5]; 0.003 nM in assay [2]; 0.02 nM in assay [6]; 0.3 nM in assay [3].
Consider `COC(=O)N[C@H](C(=O)N1CCC[C@H]1c1ncc(-c2cc(F)c3c(c2)OC(C2CC24CCCC4)n2c-3cc3cc(-c4cnc([C@@H]5CCCN5C(=O)[C@@H](NC(=O)OC)C(C)C)[nH]4)ccc32)[nH]1)C(C)C` (stereo not given in full), for which the EC50 in assay [1] is greater than 17 nM; in assay [2] it was 0.006 nM; in assay [3] it was greater than 17 nM.
In the case of `COC(=O)N[C@H](C(=O)N1CCC[C@H]1c1ncc(-c2cc(F)c3c(c2)OC(C2CC2C(=O)N(C)C)n2c-3cc3cc(-c4cnc([C@@H]5CCCN5C(=O)[C@@H](NC(=O)OC)C(C)C)[nH]4)ccc32)[nH]1)C(C)C` (stereo not given in full), the EC50 came to 9 nM in assay [1], 0.1 nM in assay [2] and 4 nM in assay [3].
The corresponding values for `COC(=O)N[C@H](C(=O)N1CCC[C@H]1c1ncc(-c2cc(F)c3c(c2)OC(C2CC2C)n2c-3cc3cc(-c4cnc([C@@H]5CCCN5C(=O)[C@@H](NC(=O)OC)C(C)C)[nH]4)ccc32)[nH]1)C(C)C` (stereo not given in full) are 2 nM, 0.006 nM and 0.09 nM.
With `COC(=O)N[C@H](C(=O)N1CCC[C@H]1c1ncc(-c2ccc3c(c2)OC(C(C)C)n2c-3cc3cc(-c4cnc([C@@H]5CCCN5C(=O)[C@@H](NC(=O)OC)C(C)C)[nH]4)ccc32)[nH]1)C(C)C` (stereo not given in full), the half-maximal effective concentration (EC50) amounted to 6 nM in assay [1]; 0.01 nM in assay [4]; 0.002 nM in assay [5]; 0.002 nM in assay [2]; 0.02 nM in assay [6]; 0.8 nM in assay [3].
Turning to `COCC1CC1C1Oc2cc(-c3cnc([C@@H]4CCCN4C(=O)[C@@H](NC(=O)OC)C(C)C)[nH]3)cc(F)c2-c2cc3cc(-c4cnc([C@@H]5CCCN5C(=O)[C@@H](NC(=O)OC)C(C)C)[nH]4)ccc3n21` (stereo not given in full), the EC50 in assay [1] turned out to be 4 nM; in assay [2], 0.009 nM; in assay [3] it was 0.7 nM.
For the compound `COC(=O)N[C@H](C(=O)N1CCC[C@H]1c1ncc(-c2cc(F)c3c(c2)OC([C@H]2C[C@@H]2c2ccccc2)n2c-3cc3cc(-c4cnc([C@@H]5CCCN5C(=O)[C@@H](NC(=O)OC)C(C)C)[nH]4)ccc32)[nH]1)C(C)C` (stereo not given in full), the EC50 in assay [1] is 4 nM; in assay [2] it was 0.005 nM; in assay [3], 0.03 nM.
As to `COC(=O)N[C@H](C(=O)N1CCC[C@H]1c1ncc(-c2ccc3c(c2)OC(C2CCCCC2)n2c-3cc3cc(-c4cnc([C@@H]5CCCN5C(=O)[C@@H](NC(=O)OC)C(C)C)[nH]4)ccc32)[nH]1)C(C)C` (stereo not given in full), the EC50 is 1 nM in assay [1]; 0.003 nM in assay [4]; 0.002 nM in assay [5]; 0.005 nM in assay [2]; 0.04 nM in assay [6]; 0.8 nM in assay [3].
Take `COC(=O)N[C@H](C(=O)N1CCC[C@H]1c1ncc(-c2cc(F)c3c(c2)OC(C2CC2(C)C)n2c-3cc3cc(-c4cnc([C@@H]5CCCN5C(=O)[C@@H](NC(=O)OC)C(C)C)[nH]4)ccc32)[nH]1)C(C)C` (stereo not given in full): the EC50 in assay [2] was 0.03 nM.
Regarding `CCCCC1Oc2cc(-c3cnc([C@@H]4CCCN4C(=O)[C@@H](NC(=O)OC)C(C)C)[nH]3)ccc2-c2cc3cc(-c4cnc([C@@H]5CCCN5C(=O)[C@@H](NC(=O)OC)C(C)C)[nH]4)ccc3n21` (stereo not given in full), the EC50 is 4 nM in assay [1]; 0.007 nM in assay [4]; 0.002 nM in assay [5]; 0.002 nM in assay [2]; 0.005 nM in assay [6]; 0.2 nM in assay [3].
`COC(=O)N[C@H](C(=O)N1CCC[C@H]1c1ncc(-c2ccc3c(c2)OC(CCC#N)n2c-3cc3cc(-c4cnc([C@@H]5CCCN5C(=O)[C@@H](NC(=O)OC)C(C)C)[nH]4)ccc32)[nH]1)C(C)C` (mixture of isomers): the values for the EC50 in assay [1], in assay [2] and in assay [3] were 8 nM, 0.03 nM and 1 nM, respectively.
For `COC(=O)N[C@H](C(=O)N1CCC[C@H]1c1ncc(-c2ccc3c(c2)OC(CCC(=O)O)n2c-3cc3cc(-c4cnc([C@@H]5CCCN5C(=O)[C@@H](NC(=O)OC)C(C)C)[nH]4)ccc32)[nH]1)C(C)C` (mixture of isomers), in that order: 124 nM, 8 nM and 33 nM.
On to `CCCCCC1CC2CCC1CC2C1Oc2cc(-c3cnc([C@@H]4CCCN4C(=O)[C@@H](NC(=O)OC)C(C)C)[nH]3)ccc2-c2cc3cc(-c4cnc([C@@H]5CCCN5C(=O)[C@@H](NC(=O)OC)C(C)C)[nH]4)ccc3n21` (mixture of isomers), for which the EC50 is 2 nM in assay [1], 0.02 nM in assay [2] and greater than 17 nM in assay [3].
Take `COC(=O)N[C@H](C(=O)N1CCC[C@H]1c1ncc(-c2ccc3c(c2)OC(CC2CCCC2)n2c-3cc3cc(-c4cnc([C@@H]5CCCN5C(=O)[C@@H](NC(=O)OC)C(C)C)[nH]4)ccc32)[nH]1)C(C)C` (mixture of isomers): the concentration for a half-maximal effect (EC50) in assay [4] is 4 nM.
For `COC(=O)N[C@H](C(=O)N1CCC[C@H]1c1ncc(-c2ccc3c(c2)OC(CC2CCCCC2)n2c-3cc3cc(-c4cnc([C@@H]5CCCN5C(=O)[C@@H](NC(=O)OC)C(C)C)[nH]4)ccc32)[nH]1)C(C)C` (mixture of isomers), the EC50 in assay [4] turned out to be 0.09 nM; in assay [5], 0.002 nM; in assay [2], 0.006 nM; in assay [6], 0.04 nM; in assay [3] it was 3 nM.
With `COC(=O)N[C@H](C(=O)N1CCC[C@H]1c1ncc(-c2ccc3c(c2)OC(CC2CC2)n2c-3cc3cc(-c4cnc([C@@H]5CCCN5C(=O)[C@@H](NC(=O)OC)C(C)C)[nH]4)ccc32)[nH]1)C(C)C` (mixture of isomers), the values for the EC50 in assay [1], in assay [5] and in assay [2] were 9 nM, 0.01 nM and 0.01 nM, respectively.
For the compound `COC(=O)CCC1Oc2cc(-c3cnc([C@@H]4CCCN4C(=O)[C@@H](NC(=O)OC)C(C)C)[nH]3)ccc2-c2cc3cc(-c4cnc([C@@H]5CCCN5C(=O)[C@@H](NC(=O)OC)C(C)C)[nH]4)ccc3n21` (mixture of isomers), the EC50 was found to be 9 nM in assay [1], 0.02 nM in assay [2] and 4 nM in assay [3].
Regarding `COC(=O)N[C@H](C(=O)N1CCC[C@H]1c1ncc(-c2ccc3c(c2)OC(C2CCOCC2)n2c-3cc3cc(-c4cnc([C@@H]5CCCN5C(=O)[C@@H](NC(=O)OC)C(C)C)[nH]4)ccc32)[nH]1)C(C)C` (mixture of isomers), the EC50 is 0.03 nM in assay [4]; 0.004 nM in assay [5]; 0.009 nM in assay [2]; 0.04 nM in assay [6]; 0.8 nM in assay [3].
